Assay results taken from ChEMBL document CHEMBL1201862, “PubChem BioAssay data set” (2004).
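Cultured in 96-well plates, cells were exposed to test compound for 48 hours across five concentrations. Here, GI50 denotes the concentration required for 50% inhibition of growth.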 The source made the active and inactive calls. Rule as the data show it: active = GI50 up to about 1.1 µM and inactive = higher.

Tests used:
Experiment in all cases: DTP human tumour cell line panel, 48 h
DU-145 = system: DU-145
EKVX = system: EKVX
HOP-62 = system: HOP-62
HOP-92 = system: HOP-92
Hs-578T = system: Hs-578T
IGROV-1 = system: IGROV-1
M14 = system: M14
MDA-N = system: MDA-N
Malme-3M = system: Malme-3M
NCI-H460 = system: NCI-H460
NCI-H522 = system: NCI-H522
OVCAR-3 = system: OVCAR-3
OVCAR-5 = system: OVCAR-5
SF-268 = system: SF-268
SF-295 = system: SF-295
SK-MEL-2 = system: SK-MEL-2
T47D = system: T47D
U-251 = system: U-251
UO-31 = system: UO-31
SNB-75 = system: SNB-75

Measured: GI50

CN(C)Cc1ccc(-c2cc3onc(-c4ccccc4)c3c(=O)n2C)cc1
inactive: DU-145 28.8 µM | EKVX > 100 µM | HOP-62 20.7 µM | HOP-92 7.87 µM | Hs-578T 19.6 µM | IGROV-1 36 µM | M14 15.1 µM | MDA-N 17.6 µM | Malme-3M 29 µM | NCI-H460 17.5 µM | NCI-H522 18.7 µM | OVCAR-3 37.4 µM | OVCAR-5 40.6 µM | SF-268 31.2 µM | SF-295 22.9 µM | SK-MEL-2 27.5 µM | T47D 20 µM | U-251 22 µM | UO-31 11.6 µM

Cc1nnc2n1N=C(c1ccccc1)/C(=C/c1ccc(-c3ccc(Cl)cc3)o1)S2
inactive: DU-145 14.3 µM | EKVX 20 µM | HOP-62 15.3 µM | HOP-92 17.5 µM | Hs-578T 54.3 µM | IGROV-1 18.9 µM | M14 17.9 µM | MDA-N 11.6 µM | Malme-3M 17.3 µM | NCI-H460 15.1 µM | NCI-H522 10.6 µM | OVCAR-3 10.5 µM | OVCAR-5 20.6 µM | SF-268 14.3 µM | SF-295 15.9 µM | SK-MEL-2 13.2 µM | T47D 5.22 µM | U-251 12.1 µM | UO-31 12.8 µM

C(=N\Nc1nnc(-c2nnc(N/N=C/c3ccccc3)o2)o1)/c1ccccc1
inactive: DU-145 > 10 µM | EKVX > 10 µM | HOP-62 > 10 µM | HOP-92 > 10 µM | Hs-578T 6.19 µM | IGROV-1 > 10 µM | M14 > 10 µM | MDA-N > 10 µM | Malme-3M > 10 µM | NCI-H460 > 10 µM | OVCAR-3 > 10 µM | OVCAR-5 > 10 µM | SF-268 > 10 µM | SF-295 > 10 µM | T47D > 10 µM | U-251 > 10 µM | UO-31 > 10 µM

O=C(C=P(c1ccccc1)(c1ccccc1)c1ccccc1)c1ccc(-c2ccc(F)cc2F)cc1
inactive: DU-145 3.1 µM | EKVX 3.17 µM | HOP-62 3.79 µM | HOP-92 2.19 µM | Hs-578T 3.97 µM | M14 2.42 µM | MDA-N 2.78 µM | Malme-3M 2.72 µM | NCI-H460 1.86 µM | OVCAR-3 1.95 µM | OVCAR-5 2.96 µM | SF-268 4.03 µM | SF-295 3.15 µM | T47D 2.33 µM | U-251 3.41 µM | UO-31 1.77 µM

O=C(NNC(=O)c1ccccc1O)c1cccs1
inactive: DU-145 > 100 µM | EKVX 34.4 µM | HOP-62 42.6 µM | Hs-578T > 100 µM | IGROV-1 30.7 µM | M14 35.5 µM | MDA-N > 100 µM | Malme-3M 22.1 µM | NCI-H460 56.9 µM | NCI-H522 3.51 µM | OVCAR-3 23.7 µM | OVCAR-5 45 µM | SF-268 19 µM | SF-295 34.2 µM | SK-MEL-2 > 100 µM | SNB-75 28.3 µM | T47D > 100 µM | U-251 > 100 µM | UO-31 50.1 µM

O=[N+]([O-])c1ccc(C2=NOC(c3ccccc3)N2C23CC4CC(CC(C4)C2)C3)cc1 (centres undefined)
inactive: DU-145 40 µM | EKVX 48.1 µM | HOP-62 26.5 µM | Hs-578T 19.5 µM | IGROV-1 24.8 µM | M14 32.7 µM | MDA-N 26.7 µM | Malme-3M 25.1 µM | NCI-H460 19.3 µM | NCI-H522 19 µM | OVCAR-3 23.5 µM | OVCAR-5 14.4 µM | SF-268 59.6 µM | SF-295 26.8 µM | SK-MEL-2 16.4 µM | SNB-75 21.9 µM | T47D 25.7 µM | U-251 34.6 µM | UO-31 9.23 µM
